One data set is described as follows: Cytotoxicity assay (MTT). The class given is cell-based. The conditions noted are these: for IC50: 5 days. The procedure: (§1) Compounds 1−5 were dissolved as described in the previous section. The cytotoxicity assay was initially performed against the cell lines L929 (mouse fibroblasts), as well as KB 3.1 (human papillomavirus-related endocervical adenocarcinoma), as described previously. A detailed protocol, as well as sources of the cell lines, is given in the Supporting Information.
(§2) After incubating the cell lines with a serial dilution of the test compounds (final range: 37 to 0.6 × 10^−3 µg/mL) for five days, the cells were dyed using 3-(4,5-dimethyl-2-thiazolyl)-2,5-diphenyl-2H-tetrazolium bromide (MTT), which is only converted to its purple formazan derivative by living cells. Then, the intensity of the purple derivative in relation to cells without additive (set to 100% viability) for each concentration of a test compound was quantified. For this, the absorption at 595 nm was measured using a microplate reader to calculate the percentage of cell viability. From this, the half-maximum inhibitory concentration (IC50, in µM) was calculated.
(§3) Protocol: Cytotoxicity Assay
(§4) The ass ay w as co nducted i n 9 6-well flat-bottom mi crotiter plates using the parameters summarised i n Tabl e S 2 and as described in [S2].
(§5) Cell lines L929 and KB 3.1 were incubated at 37 °C under 10 % CO2 in Gibco™ DMEM medium (Thermo Fisher Scientific, Waltham, MA, USA) supplemented with 10 % FBS. A microtiter plate was filled with 120 µL of this suspension (50,000/mL) in each well.
(§6) Seperately, another microtiter plate was filled with 100 µL of growth medium in each well. Then, 50 µL of the test compound sol utions (1 mg/mL) were given to wells of the first column in two replicates (one compound per row). C ell s wi thout addi ti ves, Me O H, and MeOH: DMSO 9+1 were used as negative controls. Starting from the first column, 50 µL of the solutions were gradually transferred to the ne xt col umn, the conte nts thoroughl y mi xed, and 50 µ L transferred to the following column. This created a serial dilution of the test compounds r anging from 333 µg/mL to 1.9 ×10−3 µg/mL. The remai ni ng 50 µL after column twelve were discarded. From this microtiter plate, 60 µL of the sol utions from 111 µg/ mL to 1.9×10−3 µg/mL were given to the first plate containing 120 µL of the cel l suspens i ons (i.e. the hi ghest concentrati on 333 µg/mL was not used). T his resulted i n fi nal compound concent rati ons rangi ng from […]
(§7) After 5 days of incubation under the aforeme ntioned i ncubati on condi ti ons, the half maximum inhibitory concentrati ons (IC 50) were determined using a colorimetric tetrazolium dye MTT assay [S3].
(§8) For this, 20 µL of a 5 mg/mL solution of 3-( 4 ,5 -dimethyl-2-thi azo l yl)-2 ,5 -di phenyl -2H-tetrazolium bromide (MTT) w ere added to each well and incubated for two hours at 37 °C. Then, the microtiter plate was centrifuged (3,000 r p m, 5 mi n) and the supernat ant remo ved by ho l di ng the pl ate upsi de-do wn and gentle shaking. Afterwards, the wells were washed using 100 µL of phosph ate buffered saline (PBS).
(§9) The plate was again centrifuged and the supernatant removed as described before. Then, 100 µL of an isopropanol:HCl solution (1L i sopropanol+4 mL HCl 37 % w/v) were added to the wells. After i ncubati ng fo r 10 mi n at ambi ent te mperature, the a bso r pti o n of the well s at 595 nm was measured wi th an I nfi ni te ® 200 Pro microplate reader (TECAN, Männedorf, Schweiz).
(§10) The absorption values of the cells without additives were averaged and set to 100 % cell viability.
(§11) Then, t he me ans of absorption of the two compound replicates were set in relation to the blank media.
(§12) These percentage values were plotted a gainst the concentration range (37 µg/mL to 0.6×10 −3 µg/mL).
(§13) The IC50 val ue w as read from the plot ( i n µg/mL) and the uni ts conversed to µM.
(§14) If effects were observed wi th cell lines L929 and KB 3.1 (IC50 < 50 µM), the other cell lines were tested using the same protocol.
(§15) Table S2: Cytotoxicity assay experiment parameters cell line type No. growth medium […]

Another data set deals with L929 (mouse fibroblasts). The data set is described as follows: Cytotoxicity assay (MTT). The format is cell-based. The conditions noted are these: 5 days. Here is the method: as §1, §2, §3, §4, §5, §6, §7, §8, §9, §10, §11, §12, §13, §14, §15
Where [1] appears, read: human, KB 3.1 human endocervical adenocarcinoma cells.
The mark [2] stands for this setting: mouse, L929 mouse fibroblast cells, L929 mouse fibroblasts.

Like-named read-outs stand apart in the source and are kept apart here.

Regarding `Oc1cccc2c3c(ccc12)-c1ccc(O)c2c(O)ccc-3c12` [Compound 1, viridistratin A], the IC50 at 5 days is 28.3 µM in “Cytotoxicity assay (MTT)” (setting [1]) and 12.7 µM in the data set “Cytotoxicity assay (MTT)” (setting [2]). Also, the IC50 in the data set with L929 (mouse fibroblasts) (Mus musculus, L929, 120 h, value in µg/mL, read-out: half-maximum inhibitory concentration (IC50)) was determined as 8.5 µg/mL.
On to `COc1cccc2c3c(ccc12)-c1ccc(O)c2c(O)ccc-3c12` [Compound 2, viridistratin B], for which the IC50 at 5 days in “Cytotoxicity assay (MTT)” (setting [1]) and in the data set “Cytotoxicity assay (MTT)” (setting [2]) was 17.2 µM each time.
`COc1cccc2c3c(ccc12)-c1ccc(O)c2c(OC)ccc-3c12` [Compound 3, viridistratin C]: the IC50 at 5 days in the data set “Cytotoxicity assay (MTT)” (setting [1]) and in the data set “Cytotoxicity assay (MTT)” (setting [2]) was greater than 50 µM each time. In the data set on L929 (mouse fibroblasts) (read-out: Cytotoxicity (IC50)), the IC50 was found to be 61 µM.
Regarding `O=C1C[C@H]2C(=C3CCC(=O)c4c(O)ccc2c43)c2cccc(O)c21` [Compound 4, truncatone A], the IC50 in “Cytotoxicity assay (MTT)” (KB 3.1 human endocervical adenocarcinoma) stood at 44 µM; in “Cytotoxicity assay (MTT)” (L929 mouse fibroblasts), 10.4 µM; with L929 (mouse fibroblasts) (120 h, value in µg/mL, read-out: half-maximum inhibitory concentration (IC50)), 3.3 µg/mL.
On to `O=C1CCC(=O)c2c1c(O)cc1c2-c2ccc(O)c3c(O)ccc-1c23` [Compound 5, truncatone C], for which the IC50 at 5 days came out at 30.1 µM in the data set “Cytotoxicity assay (MTT)” (setting [1]) and 16.3 µM in “Cytotoxicity assay (MTT)” (setting [2]).

For the origin of these results see article PMC7277860, “Viridistratins A−C, Antimicrobial and Cytotoxic Benzo[j]fluoranthenes from Stromata of Annulohypoxylon viridistratum (Hypoxylaceae, Ascomycota)” (Biomolecules, 2020).
